Measurements from article PMC2228615 (The Journal of General Physiology, 1980).
Like-named read-outs stand apart in the source and are kept apart here.

How the values were obtained:
[1] = molecular target: ox-brain Na+,K+-ATPase; settings: cited from earlier work
[2] = test system: human erythrocytes; settings: similar conditions, estimated; cited from earlier work
[3] = test system: Na+,K+-dependent ATPase; format: binding, turkey; settings: 150 mM Na+; for t1/2, observed half-time for disappearance of empty binding sites: 0.11-[…] K+, 37 C (Table I)

## [K+] [potassium ion]
[1]; read-out: D, dissociation constant for the potassium ion-ATPase complex, partially purified ox-brain ATPase, 150 mM Na+
  Kd: 2200 µM

## C[C@@H]1O[C@@H](O[C@H]2C[C@@H](O)[C@]3(CO)[C@H]4[C@H](O)C[C@]5(C)[C@@H](C6=CC(=O)OC6)CC[C@]5(O)[C@@H]4CC[C@]3(O)C2)[C@H](O)[C@H](O)[C@H]1O [ouabain]
[2]
  k-1, dissociation rate constant: ~ 0.001 min-1
[1]; Na+,K+-ATPase from ox-brain cortex microsomes
  activation energy for association (k1): 21 to 23 kcal/mol
[3]; 5-37 C
  activation energy for association (Arrhenius plot of k1): 29.5 kcal/mol
  activation energy for dissociation (Arrhenius plot of k-1): 24.2 kcal/mol
[3]; 20 C or higher, 0.5 mM K+, 0.85 uM [3H]ouabain (Fig. 1)
  time to attain equilibrium between free and bound radioligand: ≤ 15 min
[3]; 37 C, 0.5 mM K+, after 1 mM nonradioactive ouabain (Fig. 2)
  k-1, dissociation rate constant: 0.16 min⁻¹
[3]; [3H]ouabain 1.7x10-7 M
  t1/2, observed half-time for disappearance of empty binding sites: 2.2 min
[3]; [3H]ouabain 3.2x10-7 M
  t1/2, observed half-time for disappearance of empty binding sites: 1.2 min
[3]; [3H]ouabain 8.1x10-7 M
  t1/2, observed half-time for disappearance of empty binding sites: 0.49 min
[3]; [3H]ouabain 8.1x10-8 M
  t1/2, observed half-time for disappearance of empty binding sites: 5.1 min
